Experimental data from patent publication US20240158392A1 (Janssen Biotech, Inc., priority 2021, published 2024).

target: SIK2 (Homo sapiens, UniProt Q9H0K1); assay: SIK2 Enzymatic Assay High Version 2 (High ATP); type: biochemical; conditions: not given
Outline: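 At room temperature, enzyme (6 nM, 2× final) was preincubated with compound for 30 min, then 6 mM ATP and 400 μM HDAC5tide (both 2× final) were added for 2 h. ADP formed was measured by ADP-Glo Max (2 h reagent, 1 h detection) using luminescence.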

Sequence of SIK2 (Q9H0K1 whole entry, species assumed): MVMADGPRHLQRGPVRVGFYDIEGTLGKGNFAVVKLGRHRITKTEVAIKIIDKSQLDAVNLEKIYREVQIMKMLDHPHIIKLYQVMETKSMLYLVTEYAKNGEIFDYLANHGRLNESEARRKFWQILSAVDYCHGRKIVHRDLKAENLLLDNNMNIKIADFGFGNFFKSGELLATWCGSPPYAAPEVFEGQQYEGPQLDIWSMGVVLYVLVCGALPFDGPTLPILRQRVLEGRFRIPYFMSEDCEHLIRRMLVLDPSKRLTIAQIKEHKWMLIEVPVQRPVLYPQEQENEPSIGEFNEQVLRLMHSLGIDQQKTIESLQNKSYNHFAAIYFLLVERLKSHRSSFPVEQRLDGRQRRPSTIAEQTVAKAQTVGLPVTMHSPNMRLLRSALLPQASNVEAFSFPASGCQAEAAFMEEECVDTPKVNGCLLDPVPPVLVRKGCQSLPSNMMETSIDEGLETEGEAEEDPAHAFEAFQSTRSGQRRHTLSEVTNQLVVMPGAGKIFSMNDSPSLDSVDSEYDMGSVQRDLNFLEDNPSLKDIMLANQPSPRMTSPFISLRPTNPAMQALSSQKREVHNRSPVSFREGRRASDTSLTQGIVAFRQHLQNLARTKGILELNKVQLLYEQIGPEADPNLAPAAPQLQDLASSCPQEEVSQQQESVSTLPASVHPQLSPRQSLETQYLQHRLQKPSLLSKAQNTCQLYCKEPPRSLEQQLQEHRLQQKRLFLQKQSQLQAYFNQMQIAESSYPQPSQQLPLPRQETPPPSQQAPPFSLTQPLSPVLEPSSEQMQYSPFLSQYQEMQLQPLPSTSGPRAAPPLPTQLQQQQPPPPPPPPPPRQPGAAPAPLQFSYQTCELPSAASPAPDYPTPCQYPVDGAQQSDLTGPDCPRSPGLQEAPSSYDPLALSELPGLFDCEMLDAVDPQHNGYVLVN

Row | Structure (SMILES) | IC50
1 | Cc1cc(-c2ccn3nc(NC(=O)C4CC4(F)F)cc3c2)c(OC[C@H]2CCN2C)cn1 (stereo partly drawn) [Example 624, 2,2-difluoro-N-[5-[2-methyl-5-[[(2R)-1-methylazetidin-2-yl]methoxy]-4-pyridyl]pyrazolo[1,5-a]pyridin-2-yl]cyclopropanecarboxamide] | 0.00329 µM
2 | Cc1cc(-c2ccn3nc(Nc4cn(C)nn4)cc3c2)c(O[C@H]2C[C@H]3COC[C@@H](C2)N3)cn1 [Example 380, 5-[2-methyl-5-[[(1R,5S,7s)-3-oxa-9-azabicyclo[3.3.1]nonan-7-yl]oxy]-4-pyridyl]-N-(1-methyltriazol-4-yl)pyrazolo[1,5-a]pyridin-2-amine] | < 0.000847 µM
3 | CCCNC(=O)c1ccc(Nc2cc3cc(-c4cc(C)ncc4O[C@H]4C[C@H]5COC[C@@H](C4)N5)ccn3n2)nc1 [Example 377, 6-[[5-[2-methyl-5-[[(1R,5S,7s)-3-oxa-9-azabicyclo[3.3.1]nonan-7-yl]oxy]-4-pyridyl]pyrazolo[1,5-a]pyridin-2-yl]amino]-N-propyl-pyridine-3-carboxamide] | < 0.000847 µM
4 | Cc1cc(-c2ccn3nc(Nc4cc(C)nc(C)n4)cc3c2)c(O[C@H]2C[C@H]3COC[C@@H](C2)N3)cn1 [Example 382, N-(2,6-dimethylpyrimidin-4-yl)-5-[2-methyl-5-[[(1S,5R,7s)-3-oxa-9-azabicyclo[3.3.1]nonan-7-yl]oxy]-4-pyridyl]pyrazolo[1,5-a]pyridin-2-amine] | < 0.000847 µM
5 | Cc1cc(-c2ccn3nc(NC(=O)C4CC4)cc3c2)c(O[C@H]2CN(C)[C@H]2C)cn1 (single isomer, unassigned) [Example 456, (*S, *S)—N-[5-[5-(1,2-dimethylazetidin-3-yl)oxy-2-methyl-4-pyridyl]pyrazolo[1,5-a]pyridin-2-yl]cyclopropanecarboxamide] | 0.0204 µM
6 | Cc1cc(-c2ccn3nc(NC(=O)C4CC4)cc3c2)c(OCC2NCC23CCOCC3)cn1 (racemic) [Example 472, Racemic-N-[5-[2-methyl-5-(7-oxa-2-azaspiro[3.5]nonan-3-ylmethoxy)-4-pyridyl]pyrazolo[1,5-a]pyridin-2-yl]cyclopropanecarboxamide] | 0.0263 µM
7 | Cc1cc(-c2ccn3nc(Nc4cnccn4)cc3c2)c(O[C@H]2C[C@H]3COC[C@@H](C2)N3)cn1 [Example 392, 5-[2-methyl-5-[[(1S,5R,7s)-3-oxa-9-azabicyclo[3.3.1]nonan-7-yl]oxy]-4-pyridyl]-N-pyrazin-2-yl-pyrazolo[1,5-a]pyridin-2-amine] | 0.00107 µM
8 | Cc1cc(-c2ccn3nc(NC(=O)C4CC4)cc3c2)c(O[C@@H]2CC[C@@H](O)C2)cn1 (stereo in doubt) [Example 569, (1*R, 3*R)—N-[5-[5-(3-hydroxycyclopentoxy)-2-methyl-4-pyridyl]pyrazolo[1,5-a]pyridin-2-yl]cyclopropanecarboxamide] | 0.0717 µM
9 | Cc1cc(-c2ccn3nc(NC(=O)C4CC4)cc3c2)c(OC[C@H]2N(C)CC2(C)C)cn1 [Example 473, N-[5-[2-methyl-5-[[(2S)-1,3,3-trimethylazetidin-2-yl]methoxy]-4-pyridyl]pyrazolo[1,5-a]pyridin-2-yl]cyclopropanecarboxamide] | 0.0182 µM

same assay, conditions: enzyme 6 nM, 6 mM ATP and 400 μM HDAC5tide (each 2× final concentration); 30 minutes pre-incubation, 2 hours; ADP-Glo Max luminescence; read-out: SIK2 high ATP IC50 (μM) (Test Example 2)

Row | Structure (SMILES) | IC50
10 | Cc1cc(-c2ccn3nc(Nc4ccc(C(=O)NC(C)C)c(C)c4)cc3c2)c(OCC(C)(C)O)cn1 [Example 345, 4-[[5-[5-(2-hydroxy-2-methyl-propoxy)-2-methyl-4-pyridyl]pyrazolo[1,5-a]pyridin-2-yl]amino]-N-isopropyl-2-methyl-benzamide] | 0.0306 µM
11 | CC#Cc1cc(-c2ccn3nc(Nc4cc(C)nc(C)n4)cc3c2)c(OC[C@@H]2OCC[C@H]2O)cn1 [Example 671, (2S,3R)-2-[[4-[2-[(2,6-dimethylpyrimidin-4-yl)amino]pyrazolo[1,5-a]pyridin-5-yl]-6-prop-1-ynyl-3-pyridyl]oxymethyl]tetrahydrofuran-3-ol] | 0.204 µM
12 | Cc1cc(C(=O)NCC(C)(C)O)cc(Nc2cc3cc(-c4cc(OC(F)F)ncc4OCC(C)(C)C#N)ccn3n2)n1 [Example 701, 2-[[5-[5-(2-cyano-2-methyl-propoxy)-2-(difluoromethoxy)-4-pyridyl]pyrazolo[1,5-a]pyridin-2-yl]amino]-N-(2-hydroxy-2-methyl-propyl)-6-methyl-pyridine-4-carboxamide] | 0.0279 µM
13 | Cc1cc(-c2ccn3nc(Nc4cc(C)nc(C)n4)cc3c2)c(OC[C@@H]2CC3(CCC3)CO2)cn1 (single isomer, unassigned) [Example 220, (*S)-5-(5-((6-oxaspiro[3.4]octan-7-yl)methoxy)-2-methylpyridin-4-yl)-N-(2,6-dimethylpyrimidin-4-yl)pyrazolo[1,5-a]pyridin-2-amine] | 0.0142 µM
14 | COc1cc(Nc2cc3cc(-c4cc(C)ncc4O[C@H]4CC[C@H](O)CC4)ccn3n2)cc(OC)c1 [Example 645, (1r,4r)-4-((4-(2-((3,5-dimethoxyphenyl)amino)pyrazolo[1,5-a]pyridin-5-yl)-6-methylpyridin-3-yl)oxy)cyclohexan-1-ol] | 0.325 µM
15 | Cc1cc(-c2ccn3nc(NC(=O)C4CC4)cc3c2)c(OC[C@@H](N)c2ccccc2)cn1 (single isomer, unassigned) [Example 467] | 0.0304 µM
16 | Cc1cc(Nc2cc3cc(-c4cc(OCC#N)ncc4OC[C@H]4OCC[C@@H]4O)ccn3n2)nc(C)n1 [Example 500, 2-[[4-[2-[(2,6-dimethylpyrimidin-4-yl)amino]pyrazolo[1,5-a]pyridin-5-yl]-5-[[(2R,3S)-3-hydroxytetrahydrofuran-2-yl]methoxy]-2-pyridyl]oxy]acetonitrile] | 0.0454 µM
17 | Cc1cc(-c2ccn3nc(Nc4ccc(S(=O)(=O)N(C)C)cc4)cc3c2)c(O[C@H]2CC[C@H](O)CC2)cn1 [Example 324, 4-[[5-[5-(4-hydroxycyclohexoxy)-2-methyl-4-pyridyl]pyrazolo[1,5-a]pyridin-2-yl]amino]-N,N-dimethyl-benzenesulfonamide] | 0.0329 µM
18 | Cc1cc(-c2ccn3nc(Nc4cc(C)nc(C)n4)cc3c2)c(OCC2(C#N)COC2)cn1 [Example 275, 3-[[4-[2-[(2,6-dimethylpyrimidin-4-yl)amino]pyrazolo[1,5-a]pyridin-5-yl]-6-methyl-3-pyridyl]oxymethyl]oxetane-3-carbonitrile] | 0.0313 µM
19 | Cc1cc(-c2ccn3nc(Nc4cc(C)nc(C)n4)cc3c2)c(OC[C@H]2CCO[C@H]2C)cn1 (single isomer, unassigned) [Example 206, N-(2,6-dimethylpyrimidin-4-yl)-5-(2-methyl-5-(((2*S,3*R)-2-methyltetrahydrofuran-3-yl)methoxy)pyridin-4-yl)pyrazolo[1,5-a]pyridin-2-amine] | 0.0175 µM
20 | COc1cc(Nc2cc3cc(-c4cc(C)ncc4O[C@H]4CC[C@H](O)CC4)ccn3n2)cc(OC)c1C(=O)N(C)C [Example 332, 4-[[5-[5-(4-hydroxycyclohexoxy)-2-methyl-4-pyridyl]pyrazolo[1,5-a]pyridin-2-yl]amino]-2,6-dimethoxy-N,N-dimethyl-benzamide] | 0.015 µM
21 | COc1cc(Nc2cc3cc(-c4cc(C)ncc4OCC(C)(C)O)ccn3n2)cc(OC(F)F)c1C(=O)NC1CC1 [Example 648, N-cyclopropyl-2-(difluoromethoxy)-4-[[5-[5-(2-hydroxy-2-methyl-propoxy)-2-methyl-4-pyridyl]pyrazolo[1,5-a]pyridin-2-yl]amino]-6-methoxy-benzamide] | 0.0887 µM
